Results: patent US20030156977A1, “Method for rapidly sterilizing a load” (priority 2000, published 2003)
Values joined by “and” are separate entries in the source; they are usually repeats but may differ in a detail not shown here. Identical values can stand only once. Like-named read-outs stand apart in the source and are kept apart here.

Assays:
[1] = tested on: Bacillus stearothermophilus spores
Protocol: The sterilization process was run under the following conditions:
The trays containing the inoculated coupons and the various loads were wrapped with sterilization wrap and sealed with sterilization tape.
The effectiveness of the sterilization process was determined by placing stainless steel coupons inoculated with >10^6 Bacillus stearothermophilus spores as biological indicators (BI's) into 3 mm×400 mm stainless steel lumens. The lumens were placed into double-wrapped sterilizer trays with the loads of medical instruments to be sterilized. At the end of the cycle, the BIs were recovered from the lumens, placed into tubes of TSB (Trypticase soy broth) medium and incubated at 55-60° C. for 14 days. The biological activity was then determined.
(§1) The pressure inside the chamber was also monitored as a function of time. After the completion of the sterilization cycle, the chamber was vented, the equipment was removed, and the inoculated coupons were tested for growth in the medium. […] The sterilization results and the summary of the various methods of analyzing the hydrogen concentration data are shown in Table 2 below.

[2] = for -Initial slope, k: 8.6 mg/L H2O2 injected, 6 trays, 20 min pre-plasma, first 50 seconds after maximum concentration
Protocol: as §1
The data were analyzed in various ways to determine whether a method could be found to quickly determine the suitability of the load for sterilization.
FIGS. 5-8 show graphs of ln(c/c0) versus time for a validation load (FIG. 5), a heavy load (FIG. 6), a heavy load with a new towel (FIG. 7), and a heavy load with an old towel (FIG. 8).
The initial slopes in Table 2 are recorded as the negative of the initial slopes for simplicity in recording the data.
The final concentration is measured at the end of the diffusion step 50, prior to evacuating and generating the post-injection plasma.

[3] = Group 7 validation loads with one towel
[4] = Group 8 validation loads with two towels

SMILES: OO [hydrogen peroxide]
- Fraction Positive BIs ([1]; Group 1: validation load, 8.6 or 9.3 mg/L H2O2 injected, 6 trays, 20 min pre-plasma): 0/10
- BI's of all runs of the group ([1]; Group 1 validation loads): negative
- Fraction Positive BIs ([1]; Group 2: heavy load, 1 filter, 8.6 mg/L H2O2 injected, 6 trays, 20 min pre-plasma): 0/10
- Fraction Positive BIs ([1]; Group 2: heavy load, 2 filters, 8.6 mg/L H2O2 injected, 6 trays, 20 min pre-plasma): 0/10
- Fraction Positive BIs ([1]; Group 2: heavy load, brass, 8.6 mg/L H2O2 injected, 6 trays, 20 min pre-plasma): 0/10
- Fraction Positive BIs ([1]; Group 2: heavy load, mat, 8.6 mg/L H2O2 injected, 6 trays, 20 min pre-plasma): 0/10
- Fraction Positive BIs ([1]; Group 2: heavy load, 8.6 mg/L H2O2 injected, 6 trays, 20 min pre-plasma): 1/10
- Positive BI's, total of all runs of the group ([1]; Group 2 heavy loads): 1 of the 60
- Fraction Positive BIs ([1]; Group 3: heavy load, 1 new towel, 8.6 mg/L H2O2 injected, 6 trays, 20 min pre-plasma): 6/10
- Fraction Positive BIs ([1]; Group 3: heavy load, 2 new towels, 8.6 mg/L H2O2 injected, 6 trays, 20 min pre-plasma): 5/10
- Fraction Positive BIs ([1]; Group 3: heavy load, 6/8 towel, 8.6 mg/L H2O2 injected, 6 trays, 20 min pre-plasma): 3/10
- Positive BI's, total of all runs of the group ([1]; Group 3 heavy load/new towel runs): 14/30
- Fraction Positive BIs ([1]; Group 4: heavy load, 1 old towel, 8.6 mg/L H2O2 injected, 6 trays, 20 min pre-plasma): 10/10
- Positive BI's, total of all runs of the group ([1]; Group 4 heavy load/old towel runs): 20 of the 20
- Fraction Positive BIs ([1]; Group 5: validation load, initial load temperature 5° C., 9.3 mg/L H2O2 injected, 4 trays, 15 min pre-plasma): 0/12
- BI's of all runs of the group ([1]; Group 5 cold validation loads, 15 minutes of pre-plasma, 72 BI's): negative
- Fraction Positive BIs ([1]; Group 6: validation load, initial load temperature 5° C., 9.3 mg/L H2O2 injected, 4 trays, no pre-plasma): 0/12
- BI's of all runs of the group ([1]; Group 6 cold condensing validation loads, no pre-plasma): negative
- Positive BI's, total of all runs of the group [1, 3]: 4/72
- Positive BI's, total of all runs of the group [1, 4]: 3/73
- Initial slope, average ([2]; Group 1 runs with the validation loads): 0.00983 s⁻¹
- -Initial slope, k ([2]; Group 2: heavy load, 1 filter): 0.016 s⁻¹
- -Initial slope, k ([2]; Group 2: heavy load, 2 filters): 0.017 s⁻¹
- -Initial slope, k ([2]; Group 2: heavy load, brass): 0.012 s⁻¹
- -Initial slope, k ([2]; Group 2: heavy load, mat): 0.013 s⁻¹
- -Initial slope, k ([2]; Group 2: heavy load): 0.016 s⁻¹
- Initial slope, average ([2]; Group 2 runs with the heavy loads): 0.0145 s⁻¹
- Initial slopes, range over runs ([2]; Group 2 runs with the heavy loads (all variants)): 0.012 to 0.017 s⁻¹
- -Initial slope, k ([2]; Group 3: heavy load, 1 new towel): 0.026 s⁻¹
- -Initial slope, k ([2]; Group 3: heavy load, 2 new towels): 0.028 s⁻¹
- -Initial slope, k ([2]; Group 3: heavy load, 6/8 towel): 0.019 s⁻¹
- Initial slope, average ([2]; Group 3 runs with the heavy loads and new towel): 0.0243 s⁻¹
- Initial slopes, range over runs ([2]; Group 3 runs with the heavy loads and new towel (all variants)): 0.019 to 0.028 s⁻¹
- -Initial slope, k ([2]; Group 4: heavy load, 1 old towel): 0.039 s⁻¹ and 0.025 s⁻¹
- Initial slope, average ([2]; Group 4 runs with the heavy loads and old towel): 0.032 s⁻¹
- Initial slope, average ([2]; Group 5 runs with the cold validation loads and 15 minutes of pre-plasma): 0.0095 s⁻¹
- Initial slope, average ([2]; Group 6 runs with the cold condensing validation loads with no pre-plasma): 0.0164 s⁻¹
- Initial slope, average [2, 3]: 0.0195 s⁻¹
- Initial slope, average [2, 4]: 0.028 s⁻¹
- Initial slope by type of load ([2]; cold, condensing load): 0.016 s⁻¹
- Initial slope by type of load ([2]; heavy load): 0.015 s⁻¹
- Initial slope by type of load ([2]; heavy load with towel): > 0.020 s⁻¹
- Initial slope by type of load ([2]; validation load): 0.010 s⁻¹
